SMILES strings stand for the structures.

This data set can be described thus: gradient 5% acetonitrile 3 min, to 50% in 2 min, to 85% in 15 min, held 3 min, 100 µL/min. Particulars: column: Zorbax Extend-C18 2.1 x 50 mm; eluents: water / acetonitrile, 0.1% formic acid. The method, boiled down: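 Retention times come from adduct peaks that were picked computationally and then checked by hand. The standards, pure and pooled in mixtures of ~100 molecules, were run on a Zorbax Extend-C18 column (2.1 × 50 mm, 1.8 μm) at 100 μL/min with water and acetonitrile, each with 0.1% formic acid. Detection was by quadrupole time-of-flight mass spectrometry in positive and negative ionization mode, with a dead volume of 40 μL and a dwell volume of 900 μL.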
In turn, `CCCNC(=O)C1CCCN(c2ccc(SCC(=O)Nc3cc(Cl)ccc3C)nn2)C1` (centres undefined) returned an RP-LC retention time of 720 s.

The molecule `CCOc1ccc(N2CC(c3nc(-c4ccccc4F)no3)CC2=O)cc1` (centres undefined) yielded an RP-LC retention time of 967 s.

Take `O=C(Nc1cccc(Cl)c1)C(=O)c1cn(CC(=O)N2CCCC2)c2ccccc12`: the RP-LC retention time was 1020 s.

On to `Fc1ccc(Cl)cc1-c1nnc(-c2ccc(-n3ccnc3)nc2)o1`, for which the RP-LC retention time was found to be 681 s.

Molecule `CCN(CC)CCNC(=O)CCC(=O)N1CCc2c(c(C(=O)N3CCCC3)nn2C)C1` had an RP-LC retention time of 578 s.

Molecule `Cc1cccc(Nc2nc(C(=O)N3CCC(C(N)=O)CC3)cs2)n1` showed an RP-LC retention time of 572 s.

As for `Cc1cnc(C2CC2)n1C1CCCN(S(=O)(=O)Cc2ccccc2)C1` (centres undefined), the RP-LC retention time worked out at 637 s.

In the case of `COc1ccc(NS(=O)(=O)c2cc3n(c2)CCN(C(C)C)C3=O)cc1`, the RP-LC retention time was 717 s.

`O=S(=O)(Nc1cccc(F)c1)c1ccccc1-c1nc(-c2ccccc2)no1` gave an RP-LC retention time of 1170 s.

With `O=C(Cn1cccc1-c1nnc(-c2ccccc2)o1)NCc1ccc2c(c1)OCO2`, the RP-LC retention time stood at 860 s.

Molecule `CCOc1ccccc1N(C)C(=O)C1CCCN(c2ncnc3c2nc2n3CCCCC2)C1` (centres undefined) returned an RP-LC retention time of 850 s.

With `CCN(CC)c1ccc(NC(=O)C2CC(=O)N(c3cccc(NC(C)=O)c3)C2)c(C)c1` (centres undefined), the RP-LC retention time came to 573 s.

Molecule `CN1C(=O)c2cc(C(=O)NCCCc3ccccc3)nn2CC1(C)C(=O)NCc1ccc(F)cc1` (centres undefined) showed an RP-LC retention time of 813 s.

With `CCN1CCN(c2ccc(-c3nc(-c4cccc(F)c4)no3)cn2)CC1`, the RP-LC retention time was 698 s.

`Cc1cc(OCC(=O)N[C@@H](C)C(=O)O)c2c3c(c(=O)oc2c1)CCCC3` gave an RP-LC retention time of 746 s.

`Brc1cccc(-c2nnc(Cc3nc(-c4ccccc4)no3)o2)c1`: the RP-LC retention time turned out to be 1080 s.

For the molecule `O=C(c1ccn[nH]1)N1CCC[C@H]1c1nc(C2CCOCC2)n[nH]1`, the RP-LC retention time was determined as 558 s.

For `CCNc1cc(N2CCC(CCC(=O)N3CCN(c4ncccn4)CC3)CC2)ncn1`, the RP-LC retention time worked out at 626 s.

Take `Cc1ccnc(Nc2nc(-c3ccc(F)c(C)c3)cs2)c1`: the RP-LC retention time turned out to be 906 s.

In the case of `O=C(Nc1ccc(F)c(Cl)c1)N1CCC(n2cnc3ccc(F)cc3c2=O)CC1`, the RP-LC retention time was 860 s.

`Cc1noc(-c2ccc(SCC(=O)Nc3ccc(S(N)(=O)=O)cc3)nc2)n1` yielded an RP-LC retention time of 705 s.

`Cc1nc(C)c(C(=O)N2CC(n3cc(COc4ccc(F)cc4)nn3)C2)s1` yielded an RP-LC retention time of 729 s.

In turn, `CCCN(C(=O)c1ccccc1F)c1nc(-c2ccc(C)cc2)cs1` yielded an RP-LC retention time of 1410 s.

`COc1ccc(-c2nc(C)cc(C)c2CNC(=O)c2cccs2)cc1` returned an RP-LC retention time of 610 s.

`C=CCNC(=O)N1CCCN(C2=NS(=O)(=O)C(c3cccc(Cl)c3)=C2C)CC1` showed an RP-LC retention time of 773 s.

`CCN(CC)C(=O)c1cc2c(s1)CCC(C(=O)NCc1ccncc1)C2` (centres undefined) yielded an RP-LC retention time of 557 s.

Turning to `Cc1nc2cc(N3CC(C(=O)Nc4ccc(C)c(C)c4)CC3=O)ccc2o1` (centres undefined), the RP-LC retention time came out at 614 s.

`CCn1cc(CCNC(=O)Nc2ccc(C)cc2Cl)c2cccnc21` yielded an RP-LC retention time of 812 s.

`COc1ccc2c(c1)C1(CCN(C(=O)COc3ccc(Cl)cc3)C1)C(=O)N2C` (centres undefined): the RP-LC retention time is 878 s.

As for `O=c1c2cc(-c3ccc(F)cc3)nn2cnn1Cc1nc(-c2ccc(Cl)c(F)c2)no1`, the RP-LC retention time came to 1260 s.

`COc1ccc(Cl)cc1NC(=O)CCc1c(C)nn(-c2cc(N(C)C)ncn2)c1C` gave an RP-LC retention time of 940 s.

`Cc1cccc(-c2noc(C3CCCN3C(=O)NCCc3ccccc3)n2)c1` (centres undefined) came in with an RP-LC retention time of 593 s.

As for `CCN(Cc1ccccc1)C(=O)Cn1nc(C)c2sc(-c3ccccc3)nc2c1=O`, the RP-LC retention time was 1000 s.

In turn, `Cc1ccc(NC(=O)Cn2nc3c(Oc4ccccc4C)nccn3c2=O)cc1C` registered an RP-LC retention time of 923 s.

`N#Cc1ccccc1NC(=O)c1ccc(N2C(=O)CCC2=O)cc1` showed an RP-LC retention time of 639 s.

For `CCS(=O)(=O)N1CC(=O)N(Cc2cccc(C)c2)C(C)(C(=O)NCc2ccc(F)cc2)C1` (centres undefined), the RP-LC retention time came to 882 s.

For `CCn1c(C)c(C(=O)CN(CC2CCCO2)C(=O)c2ccc(Cl)cc2)c(C)c1C(=O)OC` (centres undefined), the RP-LC retention time stood at 978 s.

As to `Cc1cccc(N2CCN(C(=O)c3sc4ncccc4c3-n3cccc3)CC2)c1`, the RP-LC retention time turned out to be 1060 s.

As for `CCn1ccc2cc(S(=O)(=O)N3CCC(C(=O)N4CCN(c5ccccn5)CC4)CC3)ccc21`, the RP-LC retention time is 674 s.

Take `CCN1CCCC1CNC(=O)c1nnc(-c2ccc(S(=O)(=O)N3CCCCC3)cc2)o1` (centres undefined): the RP-LC retention time was determined as 645 s.

As to `Cc1ccc(CNC(=O)C2(C)CN(S(C)(=O)=O)CC(=O)N2c2cccc(Cl)c2C)cc1` (centres undefined), the RP-LC retention time came to 893 s.

Molecule `CC1CCCCN1CCCNC(=O)C1=Cc2cc(Br)ccc2OC1` (centres undefined) had an RP-LC retention time of 696 s.

Molecule `COc1ccc(Cn2c(C)c(CNCc3ccc(C)o3)c(C(=O)O)c2C)cc1` registered an RP-LC retention time of 714 s.

Turning to `CCOc1nc2ccccc2nc1N1CCCC(C(=O)Nc2ccc(OC)c(Cl)c2)C1` (centres undefined), the RP-LC retention time amounted to 1240 s.

Take `Cc1noc(C)c1-c1ccc(S(=O)(=O)N2CC=C(c3ccccc3)CC2)cc1`: the RP-LC retention time came to 1110 s.

`O=C(CCn1nnc2cc(-c3noc(COc4ccccc4)n3)ccc21)N1CCCC1` came in with an RP-LC retention time of 862 s.

In turn, `Cc1nc(-c2noc(-c3ccc(F)cc3)n2)cn1CC(=O)NC(C)c1ccccc1` (centres undefined) came in with an RP-LC retention time of 854 s.

`COc1ccc(Cl)cc1NC(=O)Cn1c2c(c(=O)n(C3CCCCC3)c1=O)CCC2`: the RP-LC retention time is 997 s.

Consider `COc1cccc2c1OC1(C)CC2C(S(=O)(=O)c2ccc(C(C)C)cc2)C(=O)N1C` (centres undefined), for which the RP-LC retention time was 1040 s.

In turn, `COc1ccc(NC(=O)c2cnc3c(c2)c(=O)n(C)c(=O)n3-c2ccc(F)cc2)cc1` returned an RP-LC retention time of 856 s.

For the molecule `CC1CCN(CCNC(=O)Cn2c(=O)n(-c3ccc(F)cc3)c3ncccc32)CC1`, the RP-LC retention time is 614 s.

Take `CCOc1ccc(-n2nc(-c3nc(-c4ccncc4)no3)c3ccccc3c2=O)cc1`: the RP-LC retention time was 1090 s.

In turn, `C=CCNc1c(C(=O)OC)c(=O)[nH]c2c(Cl)cccc12` came in with an RP-LC retention time of 700 s.

Consider `COCCn1c(SCc2c(F)cccc2Cl)nnc1-c1cn(C)nc1OC`, for which the RP-LC retention time is 683 s.

For `COc1ccc(NC(=O)c2cccc(F)c2)c2ccccc12`, the RP-LC retention time is 852 s.

As for `Cc1ccnc(N2CCC(C(=O)NC3CCCCC3)CC2)n1`, the RP-LC retention time was determined as 669 s.

In turn, `CCN1C(=O)COc2ccc(-c3noc(/C=C/c4ccc(OC)cc4)n3)cc21` displayed an RP-LC retention time of 1130 s.

As to `O=C([C@@H]1C[C@H](F)CN1C(=O)Nc1cccc(F)c1)N1CCCCC1`, the RP-LC retention time was found to be 708 s.

`COc1ccc(-c2cc(C(=O)O)c3ccccc3n2)cc1OC` returned an RP-LC retention time of 658 s.

`CCOC(=O)N1CCC(NS(=O)(=O)CCCOc2ccc(F)cc2)CC1`: the RP-LC retention time was found to be 758 s.

On to `CCn1c(=O)c2c(cc(C)n2C)n(CC(=O)Nc2ccc(C)cc2C)c1=O`, for which the RP-LC retention time was 812 s.

`NC(=O)C1CCN(C(=O)CN2c3ccc(Br)cc3-c3ccccc3S2(=O)=O)CC1`: the RP-LC retention time came to 705 s.

Molecule `CC1=NS(=O)(=O)N(Cc2ccccc2)C=C1C(=O)OCc1ccccc1` showed an RP-LC retention time of 1090 s.

The molecule `COCCN1CCC(N2CCN(C(=O)c3ccsc3)CC2)C1=O` (centres undefined) showed an RP-LC retention time of 515 s.

As to `COc1cc(Cl)ccc1C(=O)NCc1c(C)noc1C`, the RP-LC retention time amounted to 810 s.

Regarding `Cn1c(=O)c(NCCc2c[nH]c3ccccc23)nc2ccncc21`, the RP-LC retention time was determined as 619 s.

With `CCOc1ccc(S(=O)(=O)N(C)C)c2ccccc12`, the RP-LC retention time was found to be 950 s.

With `CNC(=O)C1Cc2ccccc2CN1S(=O)(=O)c1ccc(OC)cc1` (centres undefined), the RP-LC retention time was found to be 770 s.

On to `Cc1ccc(NC(=O)Cn2nc(-n3cccc3)c3c(C)cc(C)nc32)c(C)c1`, for which the RP-LC retention time turned out to be 1080 s.

`COc1ccc2cccc(NC(=O)c3c(F)cccc3Cl)c2n1` had an RP-LC retention time of 1090 s.

In turn, `O=S(=O)(Cc1ccc(Cl)cc1)N1CCc2nc(-c3ccccc3)ncc2C1` registered an RP-LC retention time of 1090 s.

`O=C(Nc1ccc(F)cc1)C(=O)c1cn(CC(=O)N2CCCC2)c2ccccc12` had an RP-LC retention time of 954 s.

Regarding `O=C(c1cn2ccnc(-c3ccccc3)c2n1)N1CCCC1`, the RP-LC retention time came to 831 s.

The molecule `O=C(NC1CCN(Cc2ccccc2)CC1)C1CCCN(c2ncc(-c3ccc(F)cc3)cn2)C1` (centres undefined) gave an RP-LC retention time of 744 s.

`CCCCC(=O)Nc1ccc2c(c1)nc(CN1CCN(C)CC1)n2C(C)C` yielded an RP-LC retention time of 575 s.

In turn, `O=c1oc2cc(O)c(O)cc2c2c1CCC2` gave an RP-LC retention time of 641 s.

Molecule `CCOc1ccc(CNC(=O)C2(c3ccc(NC(C)=O)cc3)CCCCC2)cc1` showed an RP-LC retention time of 866 s.

As to `CC(=O)Nc1ccc(-n2cnc(C(=O)N3CCN(c4ccc(Cl)cc4)CC3)c2)nc1`, the RP-LC retention time is 751 s.

Turning to `CCn1c(=O)c(=O)n(CC(=O)NCc2ccco2)c2cccnc21`, the RP-LC retention time came out at 652 s.

Values taken from the METLIN SMRT retention time set (Domingo-Almenara et al. 2019).
